Assay results reported in US10308649B2, “Compounds and methods to suppress autoimmune response” (Oregon State University, priority 2014, dated 2019).
pIC50: −log10 of the molar value.

Assays:
[1] = tested on: NOD.Foxp3DTR mice; assay: Islet infiltration in Foxp3 depleted (DT treated) NOD.Foxp3DTR mice; format: in vivo, mouse; conditions: day 9, AHRL1 60 mg/kg oral days -1, 1, 3, 5, 7, TCDD day -1
Text: FIGS. 6a-6e illustrate the therapeutic effects of treatment with an AhR ligand on a Foxp3 deficient subject using a NOD.Foxp3− mouse model. […]. NOD.Foxp3^DTR mice were obtained from the Juvenile Diabetes Research Foundation Center (JDRF) for Immune Tolerance in Diabetes at Harvard (CITDH). Mice were bred and maintained under specific pathogen-free conditions at Oregon State University facilities. All experimental procedures using animals were approved by the Institutional Animal Care and Use Committee at Oregon State University.
FIG. 6a illustrates details of the mouse model used to analyze the therapeutic effects and mechanisms by which AhR activation alters T cell differentiation. […] Arrows 152 illustrate the NOD.Foxp3^DTR mice were orally dosed with 60 mg/kg AHRL1 on days −1, 1, 3, 5, and 7 relative to DT treatment on day 0. The carrier for AHRL1 was a 30% DMSO, 20% CREMAPHOR, 50% PECEOL solution. Data was also collected from NOD.Foxp3^DTR mice treated with TCDD on day −1 relative to DT treatment on day 0. […]
The pancreases from the sacrificed mice were excised, sectioned, and stained with hematoxylin and eosin for analysis of islet infiltration by inflammatory CTL cells. Islet infiltration was scored on sequential hematoxylin and eosin stained pancreas sections separated by 200 μm. Islets were scored as no infiltration, less than 50% infiltration, or greater than 50% infiltration. […]

[2] = Clinical chemistry profile from toxicology screen of NOD mice; format: in vivo, mouse; conditions: 20 weeks of age
Text: The results listed in Table 1 illustrate an absence of clinical signs of toxicity after prolonged treatment with AHRL1. Table 1 lists the results of a clinical chemistry profile from a toxicology screen of the AHRL1 treated, TCDD treated, and vehicle treated mice. The clinical chemistry panel includes tests for substances in the blood that have biological functions, metabolites or waste products, and substances that indicate cell damage or disease. The concentrations of the substances listed in Table 1 were measured at 20 weeks of age. The concentrations are reported as milligrams per deciliter (mg/dl), grams per deciliter (g/dl), units per liter (U/L), or milli equivalents per liter (mEq/L).
FIGS. 18a-18r show the clinical chemistry profile from a toxicology screen for three groups: AHRL1 treated mice, vehicle treated mice, and untreated mice. For the test group, the mice were treated with AHRL1. The vehicle given was the carrier for the AHRL1 compound. The carrier included 30% DMSO, 20% Cremaphor, and 50% Peceol. The mice were tested after 12 weeks of exposure. The clinical chemistry panel includes tests for substances in the blood that have biological functions, metabolites or waste products, and substances that indicate cell damage or disease.

[3] = tested on: NOD.Foxp3DTR mice; assay: Flow cytometry of PLN cells of NOD.Foxp3DTR mice; format: in vivo, mouse
Description: FIG. 6a illustrates details of the mouse model used to analyze the therapeutic effects and mechanisms by which AhR activation alters T cell differentiation. […] Arrows 152 illustrate the NOD.Foxp3^DTR mice were orally dosed with 60 mg/kg AHRL1 on days −1, 1, 3, 5, and 7 relative to DT treatment on day 0. The carrier for AHRL1 was a 30% DMSO, 20% CREMAPHOR, 50% PECEOL solution. Data was also collected from NOD.Foxp3^DTR mice treated with TCDD on day −1 relative to DT treatment on day 0. […] Non-obese diabetic Foxp3 wild type (NOD.Foxp3^WT) mice treated with DT and NOD.Foxp3^DTR mice treated with vehicle were used as controls. The vehicle was the carrier for AHRL1. Arrow 158 illustrates sacrifice of the mice on day 9.
The leukocyte composition of the pancreas and draining lymph nodes was analyzed using flow cytometry. Draining lymph nodes and pancreata were excised from the sacrificed mice, and single cell suspensions were prepared for analysis with flow cytometry. […] Data were acquired using an FC-500 flow cytometer (BECKMAN COULTER) and compensated and analyzed using FLOWJO software. […]

[4] = target: T1, AhR (Mus musculus, UniProt P30561); assay: Competitive inhibition of [3H] 3-MC binding to AhR
T1 sequence (P30561 10-848): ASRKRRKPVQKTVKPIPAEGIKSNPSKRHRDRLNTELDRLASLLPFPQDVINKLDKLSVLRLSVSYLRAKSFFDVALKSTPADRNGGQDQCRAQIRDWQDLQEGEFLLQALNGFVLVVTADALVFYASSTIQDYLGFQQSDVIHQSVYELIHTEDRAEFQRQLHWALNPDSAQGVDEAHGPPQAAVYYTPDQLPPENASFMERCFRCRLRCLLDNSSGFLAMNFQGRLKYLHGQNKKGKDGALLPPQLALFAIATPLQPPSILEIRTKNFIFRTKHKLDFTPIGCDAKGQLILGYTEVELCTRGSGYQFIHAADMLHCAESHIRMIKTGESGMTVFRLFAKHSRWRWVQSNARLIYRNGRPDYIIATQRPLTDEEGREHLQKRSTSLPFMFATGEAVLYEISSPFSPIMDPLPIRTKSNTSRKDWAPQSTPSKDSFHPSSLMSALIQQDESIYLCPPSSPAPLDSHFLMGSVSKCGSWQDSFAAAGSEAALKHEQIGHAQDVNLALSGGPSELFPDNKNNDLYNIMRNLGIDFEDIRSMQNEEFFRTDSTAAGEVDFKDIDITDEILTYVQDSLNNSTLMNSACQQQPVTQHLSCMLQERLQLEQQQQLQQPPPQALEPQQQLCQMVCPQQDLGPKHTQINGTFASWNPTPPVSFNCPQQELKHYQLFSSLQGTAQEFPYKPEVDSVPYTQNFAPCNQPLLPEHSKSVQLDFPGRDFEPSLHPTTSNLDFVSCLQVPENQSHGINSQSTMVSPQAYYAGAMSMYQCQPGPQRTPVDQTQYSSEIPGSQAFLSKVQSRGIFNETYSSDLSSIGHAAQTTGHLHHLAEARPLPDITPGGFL
Text: 3-MC binding to AhR. […] 3-methylcholanthrene (3-MC) to AhR.

Clc1cc2c(cc1Cl)Oc1cc(Cl)c(Cl)cc1O2 [TCDD, 2,3,7,8-tetrachlorodibenzo-p-dioxin]
islets showing no infiltration [1]: greater percentage of islets being free from infiltration
Alanine Aminotransferase (ALT) [2]: 24.0 ± 2.5 U/L
Albumin [2]: 3.4 ± 0.1 g/dL
Alkaline Phosphatase [2]: 80.0 ± 14.7 U/L
Anion Gap [2]: 34.0 ± 1.2 mEq/L
Bicarbonate (tCO2) [2]: 18.6 ± 1.4 mEq/L
Bilirubin, Total [2]: 0.43 ± 0.64 mg/dL
Blood Urine Nitrogen (BUN) [2]: 20.0 ± 2.7 mg/dL
Calcium [2]: 10.8 ± 0.4 mg/dL
Chloride [2]: 109.5 ± 1.7 mEq/L
Cholesterol [2]: 91.9 ± 5.1 mg/dL
Creatinine [2]: 0.3 ± 0.1 mg/dL
Creatinine Kinase (CK) [2]: 398.3 ± 248.7 U/L
Gamma-glutamyl transferase (GGT) [2]: 0.0 ± 0.0 U/L
Phosphorous [2]: 8.2 ± 1.2 mg/dL
Potassium [2]: 9.7 ± 0.4 mEq/L
Sodium [2]: 151.9 ± 2.4 mEq/L
Total Protein [2]: 5.6 ± 0.2 g/dL
percentage of CD4+Foxp3- cells that were Nrp1+ ([3]; DT treated NOD.Foxp3DTR mice): decreased
percentage of CD4+Foxp3- cells that were RORγt+ ([3]; TCDD treated mice): 0.42%
pIC50 [4]: 8.33
